Reference: patent US10513503B2, “Use of 3-deoxyanthocyanidins for treating occular diseases” (BIOPHYTIS, priority 2015, dated 2019)

Assays:
[1] = test system: primary cultures of retinal pigment epithelium (RPE) of adult pigs; test: In vitro assay of the photoprotective activity: phototoxicity induced by A2E and blue light, cell survival; format: cell-based, pig; conditions: for viability at 5 µM / viability at 20 µM: Sus scrofa; for viability at 5 µM / viability at 20 µM / Cell survival: A2E 30 μM, blue light 470 nm 50 min, survival after 24 h, living cells vs control wells without A2E x100, A2E controls without molecule 39.7±3.7
Method: A cell model of phototoxicity induced by the association of a treatment by the A2E and of an illumination by blue light on primary cultures of RPE, wherein cell survival was measured, was used. This model uses primary cultures of retinal pigment epithelium of adult pigs.
This model makes it possible in particular to carry out the screening of molecules aimed at the discovery of new candidates for a treatment of the dry form of AMD. This model is closer to the “physiological” situation than the cell lines commonly used in literature, because the cells used contain protective substances provided by the diet of the animal and are therefore not in a situation of “deficiency”, and their disturbance is caused by the adding of A2E into the culture medium.
The cell cultivated in 96-well plates were treated for 48 hours with the compounds to be tested (in a 5 mM solution in the DMSO) in such a way as to obtain final concentrations of 5 or 20 μM), of which the last 19 hours in the presence of A2E (final concentration 30 μM). […] Cell survival is measured after 24 hours.
Cell survival and death are detected 24 hours after the induction of the phototoxicity by colouration of the cells with Hoechst (a nuclear marker) and with ethidium (a marker of the nuclei of dead cells). Images of each well are acquired on a fluorescent microscope equipped with a motorised stage controlled by the Metamorph software, and cell survival is quantified by a dedicated quantification program. The experiments are conducted on 96-well microplates in quadruplicate and each experiment is reproduced at least four times.
The results are expressed in the form of a ratio representing the number of living cells in the wells treated by the molecules to be tested divided by the number of living cells in the control wells (treated with the dilution medium without A2E) and multiplied by 100.

[2] = test system: genetically modified mouse model (ABCA4 and Rdh8 inactivated); test: In vivo assay of the photoprotective activity in mice (blue light exposure after intravitreal injection); conditions: unilateral intravitreal injection, 100-130 μM in the vitreous, blue light 4000 lux 1 h
Source text: A genetically modified mouse model developed by Maeda et al. (Invest Ophthalmol. Vis. Sci., 2009, 50, 4917-4925) was used to test the photoprotective activity of the compounds of the invention.
In this mouse model, two genes involved in the visual pigment cycle (ABCA4 and Rdh8, see FIG. 1) are inactivated, which results in an early accumulation of A2E in the eyes. This animal model is therefore representative of the human pathology.
Mice aged 7 weeks were used to carry out the unilateral intravitreal injections of solubilised diosmetinidin ([…]) in DMSO and diluted in PBS (1.2:100), in order to obtain a concentration in the vitreous of 100-130 μM. DMSO diluted in the PBS was injected into the control animals. After 24 h in the dark, the mice were subjected to an exposure to blue light (4000 lux, 1 h).

RPE cells [3] = conditions: literature, in words; cited from earlier work
RPE cells [4] = conditions: literature, in words; cited from earlier work; remark: listed apart in the source

Compound	viability at 20 µM ([1]; 20 μM compound for 48 h)	Cell survival ([1]; 20 μM compound for 48 h)	also measured
Oc1ccc(-c2ccc3c(O)cc(O)cc3[o+]2)cc1 [Compound 4, 4′,5,7-trihydroxy-flavylium chloride (apigeninidin)]	89.5 ± 3.5%		viability at 5 µM ([1]; 5 μM compound for 48 h): 71 ± 3.6%
COc1ccc(-c2ccc3ccc(O)cc3[o+]2)c(O)c1 [Compound 1, 2′,7-dihydroxy-4′-methoxy-flavylium chloride]	89.9 ± 4.9%		
COc1ccc2ccc(-c3ccc(OC)c(OC)c3)[o+]c2c1	48.7 ± 5.5%		
COc1ccc(-c2ccc3ccc(O)cc3[o+]2)cc1O [Compound 3, 3′,7-dihydroxy-4′-methoxy-flavylium chloride]	77 ± 2.7%		
COc1ccc(-c2ccc3c(O)cc(O)cc3[o+]2)cc1O.[Cl-] [Compound 5, 3′,5,7-trihydroxy-4′-methoxy-flavylium chloride (diosmetinidin)]	90.8 ± 3.6%		electroretinograms (wave A, wave B electrical activity) ([2]; 7 days later): protective effect; survival of the photoreceptors (number of layers of photoreceptors) ([2]; FIG. 4): good survival; viability at 5 µM ([1]; 5 μM compound for 48 h): 84.5 ± 1.4%
Oc1cc(O)c2cc(O)c(-c3cc(O)c(O)c(O)c3)[o+]c2c1 [Delphinidin, delphinidin]		57.8 ± 5.6%	Cell survival ([1]; 5 μM compound for 48 h): 40.5 ± 6.2%; effectiveness for cell survival of the RPE cells (RPE cells [3]): ineffectiveness; photoprotective effect on the RPE cells (RPE cells [4]): photoprotective effect
COc1ccc(-c2ccc3ccc(OC)cc3[o+]2)c(O)c1	39.2 ± 7.4%		
COc1cc(-c2[o+]c3cc(O)cc(O)c3cc2O)cc(O)c1O [Petunidin, petunidin]		67.2 ± 6.9%	effectiveness for cell survival of the RPE cells (RPE cells [3]): ineffectiveness
Oc1ccc(-c2ccc3c(O)cc(O)c(O)c3[o+]2)cc1O [Gossypetinidin, gossypetinidin]		36.5 ± 14.4%	
COc1ccc(-c2ccc3ccc(O)cc3[o+]2)cc1OC	46.1 ± 4.7%		
Oc1cc(O)c2cc(O)c(-c3ccc(O)c(O)c3)[o+]c2c1 [Cyanidin, cyanidin]		92.9 ± 1.9%	Cell survival ([1]; 5 μM compound for 48 h): 56.4 ± 8.8%; photoprotector effect ([1]; at 20 μM, in words): substantial photoprotector effect; effectiveness of the photoprotection ([1]; at a lower concentration (5 μM), in words): substantially reduced; effectiveness for cell survival of the RPE cells (RPE cells [3]): ineffectiveness; photoprotective effect on the RPE cells (RPE cells [4]): photoprotective effect
Oc1cc(O)c2ccc(-c3ccc(O)c(O)c3)[o+]c2c1 [Compound 7, 3′,4′,5,7-tetrahydroxy-flavylium chloride (luteolinidin)]	93.6 ± 6.7%		viability at 5 µM ([1]; 5 μM compound for 48 h): 72 ± 4.4%
COc1ccc(-c2ccc3ccc(O)cc3[o+]2)c(O)c1O [Compound 2, 2′,3′,7-trihydroxy-4′-methoxy-flavylium chloride]	86.7 ± 2.3%		
Oc1cc(O)c2ccc(-c3cc(O)c(O)c(O)c3)[o+]c2c1 [Compound 6, 3′,4′,5′,5,7-pentadroxy-flavylium chloride (tricetinidin)]	99.3 ± 3.3%		viability at 5 µM ([1]; 5 μM compound for 48 h): 74.9 ± 4.2%
Oc1ccc2cc(O)c(-c3ccc(O)c(O)c3)[o+]c2c1 [Fisetinidin, fisetinidin]		39.3 ± 3.2%	
Oc1ccc(-c2[o+]c3cc(O)c(O)c(O)c3cc2O)cc1O [Quercetagetinidin, quercetagetinidin]		54.3 ± 6.6%	
COc1cc(-c2[o+]c3cc(O)cc(O)c3cc2O)cc(OC)c1O.[Cl-] [Malvidin, malvidin]		51.5 ± 6.9%	effectiveness for cell survival of the RPE cells (RPE cells [3]): ineffectiveness; photoprotective effect on the RPE cells (RPE cells [4]): contrary
guibourtinidin		42.8 ± 6.9%	
